Test results from publication PMC12814185, “Receptor-Mediated Shuttling of a D‑Amino Acid Peptide Achieves High Nanomolar Cytosolic Concentrations” (Journal of the American Chemical Society, 2025).
Where a SMILES comes first, the peptide text is derived from it. Bridges are numbered along the chain shown (N, C = ends). Roman numbers before positions name the chains, in order. Triazole bridges read from a SMILES are 1,4-linked. Where no end group is shown, it is not given here. Side-chain parts run from the residue outwards. [ ]: non-standard residue; d: D form. The star is where a group is joined. X2 = CN1C(=C/C=C/C=C/C2=[N+](CCCCCC(=O)*)c3ccc(S(=O)(=O)[O-])cc3C2(C)C)C(C)(C)c2cc(S(=O)(=O)O)ccc21; X1 = CN1C(=CC=CC=CC2=[N+](CCCCCC(=O)*)c3ccc(S(=O)(=O)[O-])cc3C2(C)C)C(C)(C)c2cc(S(=O)(=O)O)ccc21; Lys(N3) = [N-]=[N+]=NCCCC[C@H](N)C(=O)O; Cit = NC(=O)NCCC[C@H](N)C(=O)O; d(hCys) = N[C@H](CCS)C(=O)O; PEG3 = NCCOCCOCCOCCC(=O)O; Pra = C#CC[C@H](N)C(=O)O

What was measured:
HEK293_CMKLR1-eYFP cells = assay: Resazurin based cell viability assay, peptides; details: 72 h incubation
Description: page 3: […] 15% FCS. Calcium flux assay Calcium flux assay was performed with cells expressing CMKLR1 and the chimeric G protein […]. The stably transfected COS-7_CMKLR1-eYFP_ […] were seeded at 25,000 cells per well into poly-ᴅ-lysine-coated 96-well plates (black μCLEAR, Greiner). The next day, cells were incubated with […] (Sigma), 20 mM 4-(2-hydroxyethyl)-1-piperazineethanesulfonic acid (HEPES, Sigma) in Hanks' Balanced […] This solution was replaced by assay buffer, and basal Ca2+ signal (λex = 485 nm, λem = 525 nm) was measured for 20 s with a Flexstation 3 plate reader (Molecular Devices). Peptide dilutions were added, and the Ca2+ response was measured for 40 s. The maximum signal over baseline was calculated and normalized to peptide 1 (N3-cC9). Non-linear regression was performed using Prism 10 (GraphPad). Experiments were performed in technical duplicates and at least twice. Cell viability assay HEK293 and HEK293_CMKLR1-eYFP cells were seeded at 15,000 cells per well into poly-ᴅ-lysine coated 96-well plates (black μCLEAR, Greiner). […] Cells were then washed and a resazurin-based cell viability assay was performed. […] (1:1) + 15% FBS without phenol red was added to the cells. […] using the fluorescence of resorufin (λex = 550 nm, λem = 595 nm). Data was normalized to cells incubated without peptide (100%) and cells treated with ethanol for 3 min before resazurin addition (0%). Experiments were performed in technical triplicates and at least twice. Fluorescence microscopy Peptide internalization was evaluated by fluorescence microscopy. […] the cells and incubated for 6 h. […] All shown microscopy images are representative of at least two independent experiments. […] Resazurin based cell viability assay of HEK293 and HEK293_CMKLR1-eYFP cells after 72 h incubation with the p53/MDM2 inhibitor Nutlin-3a. […] 100 50 2Cy 3Cy 4Cy 0 -8 -7 -6 -5 -4 […]], log Figure S4. Resazurin based cell viability assay of HEK293_CMKLR1-eYFP cells after 72 h incubation with the PMIγ peptides discussed in this work. Mean ± SEM from two independent experiments performed in triplicates. 15 […]

[1] = test system: HEK293 cells stably expressing CMKLR1-eYFP; assay: Live cell fluorescence microscopy of peptide internalization, cells with CMKLR1; type: cell-based; details: 1 μM Cy5-labeled peptide, 6 h, cells transfected with CMKLR1
Description: (§1) 2 Internalization of cyclic chemerin-9 conjugates. Live cell fluorescence microscopy of HEK293 and HEK293 cells stably expressed CMKLR1-eYFP. Cells were incubated with 1 μM Cy5-labeled peptide for 6 h before imaging. Blue = Hoechst33342, yellow = CMKLR1-eYFP, magenta = Cy5-peptide, scale bar ≙ 10 μm. […]
(§2) Salt Solution (HBSS, Biowest), pH 7.5) for 1 h. […]
(§3) Experiments were performed in technical duplicates and at least […]
(§4) HEK293 and HEK293_CMKLR1-eYFP cells were seeded at 15,000 cells per well into poly-ᴅ-lysine coated 96-well plates (black µCLEAR, Greiner). The next day, dilutions of the Cy5 -labeled peptides or Nutlin-3a […]
(§5) Cells were then washed and a resazurin-based cell viability […]
(§6) assay was performed. […]
(§7) Experiments […]
(§8) were performed in technical triplicates and at least twice.
(§9) Peptide internalization was evaluated by fluorescence microscopy. HEK293 and stably transfected […]
(§10) microscopy slides (ibidi). The next day, 1 µM Cy5-labeled peptides in cell culture medium were added to the cells and incubated for 6 h.
(§11) FluoroBriteTM DMEM (Gibco) with 10% FBS, 25 mM HEPES (pH 7.4) before imaging on an AxioVision Observer.Z1 microscope equipped with an apotome imaging system, an HXP120C light source, and a C-Apochromat 63x/1.20 W objective. All shown microscopy images are representative of at least two

HEK293 cells = assay: Live cell fluorescence microscopy of peptide internalization, cells without CMKLR1; type: cell-based; details: 1 μM Cy5-labeled peptide, 6 h
Description: as §1, §2, §3, §4, §5, §6, §7, §8, §9, §10, §11

[2] = FCS diffusion coefficient in solution; type: physicochemical; details: 10 nM in Fluorobrite DMEM, 22 °C, mean and SD of three independent measurements
Excerpt: Fluorescence correlation spectroscopy (FCS) […] Nuclei were […] HEPES (pH 7.4). […] Prior to measurements, the correction collar of the objective […] Repeats […] is the autocorrelation at τ, N the average number of molecules in the focal volume, τD the average diffusion time through the focal volume, α the anomalous coefficient describing the hindered diffusion, S the shape factor of the focal volume, τE the time domain of the additional exponential term and E the fraction of molecules in the exponential term. […] [nM] [nM] […] 100 23.5 ± 40.2 11.9 *÷ 3.0 10.2 (5.2-32.1) 1000 138 ± 122 87.7 *÷ 3.0 98.8 (37.8-199) 10000 308 ± 257 239 *÷ 2.0 228 (157-435) […] Table S8. Predicted and measured diffusion coefficients D in solution. Measurements were performed with 10 nM of fluorescent compounds in Fluorobrite […] Data from three independent measurements. Mean and standard deviation are shown. name molecular predicted D measured […]] sulfo-Cy5 778.0 - 341.6 (reference) […] Intracellular cleavage product 2401.8 244.7 - 3Cy […]9 4475.1 175.0 138.5 ± 5.1 Intracellular cleavage product 2733.2 234.4 - 18

Question: Which cytotoxicity (HEK293_CMKLR1-eYFP cells) does the source give for `CC(=O)N[C@@H](CCCCn1cc(C[C@H](NC(=O)CCOCCOCCOCCNC(=O)[C@H](CCCNC(N)=O)NC(=O)[C@@H](NC(=O)[C@H](CCC(=O)O)NC(=O)CNC(=O)CNC(=O)[C@@H](CCCNC(=N)N)NC(=O)[C@@H](CC(C)C)NC(=O)[C@@H](CC(C)C)NC(=O)[C@@H](C)NC(=O)[C@@H](CCC(=O)O)NC(=O)[C@@H](Cc2ccccc2)NC(=O)[C@@H](C)NC(=O)[C@@H](CC(C)C)NC(=O)[C@H]2CCCN2C(=O)[C@@H](Cc2c[nH]c3ccccc23)NC(=O)[C@@H](Cc2c[nH]c3ccccc23)NC(=O)[C@@H](CC(=O)O)NC(=O)CCOCCOCCOCCNC(=O)CCCCC[N+]2=C(/C=C/C=C/C=C3N(C)c4ccc(S(=O)(=O)O)cc4C3(C)C)C(C)(C)c3cc(S(=O)(=O)[O-])ccc32)C(C)C)C(N)=O)nn1)C(=O)N[C@@H](Cc1ccc(O)cc1)C(=O)N[C@@H](Cc1ccccc1)C(=O)N1CCC[C@H]1C(=O)N[C@@H]1CCSSC[C@@H](C(=O)O)NC(=O)[C@H](Cc2ccccc2)NC(=O)[C@H](C)NC(=O)[C@H](Cc2ccccc2)NC(=O)[C@H](CCC(N)=O)NC1=O` [2Cy] (I: {X2-PEG3}-[dD][dW][dW][dP][dL][dA][dF][dE][dA][dL][dL][dR]GGEV[Cit][PEG3][Pra]-NH2 / II: Ac-[Lys(N3)]YFP[d(hCys)]QFAFC-OH; triazole I:19-II:1; disulfide II:5-II:10) here?
Answer: no signs of cytotoxicity

Question: What about the internalization [1] of the same molecule?
Answer: internalized efficiently

Question: And the internalization (HEK293 cells)?
Answer: did not internalize

Question: And the “measured D in solution” value [2]?
Answer: 154.2 ± 4.3 µm2/s

Question: With “I: GSVSHHHHHHGGHHHH[PEG3][dK]([PEG3-X1])[dD][dW][dW][dP][dL][dA][dF][dE][dA][dL][dL][dR]GEV[Cit][PEG3][Pra]-NH2 / II: Ac-[Lys(N3)]YFP[d(hCys)]QFAFC-OH (triazole I:36-II:1; disulfide II:5-II:10) [3Cy]” as the molecule, how does the cytotoxicity (HEK293_CMKLR1-eYFP cells) read?
Answer: tolerated slightly worse at concentrations above 1 μM

Question: What about the internalization [1] of the same molecule?
Answer: internalized efficiently

Question: And the internalization (HEK293 cells)?
Answer: very faint intracellular signals

Question: What about the “measured D in solution” value [2] of the same molecule?
Answer: 138.5 ± 5.1 µm2/s
